The record followed here is US20260169012A1, “WHOLE BLOOD CONTROL SAMPLE SYSTEMS AND METHOD OF PREPARING AND USING THE SAME” (Perosphere Technologies Inc., priority 2020, published 2026).

Each structure is given as a SMILES string. Like-named read-outs stand apart in the source and are kept apart here.

For assay [1], the system named is surrogate whole blood control. The procedure: Plasma was prepared by mixing sheep plasma and horse plasma at a mixing ratio of 1:9. Sheep fibrinogen solution (45.72 mg/mL in 20 mM sodium citrate-HCl, pH 7.4) was diluted to 40 mg/mL by saline. Plasma base was further prepared by mixing 77% (w/v) plasma and 23% (w/v) sheep fibrinogen solution (40 mg/mL). Whole blood control was prepared by resuspending 35% (w/v) 2% glutaraldehyde-fixed horse red blood cells in 65% (w/v) plasma base, with addition of rabbit brain cephalin to a final concentration of 0.144 mg/mL. The whole blood control was then freeze-thawed once and freeze-dried in glass vials. To test the effect of calcium chloride concentration in activation solution on clotting time, the freeze-dried surrogate whole blood control was reconstituted in a diluent solution to half of its original volume, incubated at room temperature for 6 minutes, and mixed by swirling the glass vial gently for an additional 1 minute. The control was then activated by addition of calcium chloride solution of varying concentrations at the volume ratio of 1:1, followed by six times of rapid inversion. The samples were tested on Perosphere Technologies' PoC Coagulometers immediately after activation.

Assay [2] has as its system surrogate whole blood control. The assay is described as follows: Clotting time of surrogate whole blood control on PoC Coagulometer, benzamidine in lyophilizate (Example 2). The arrangement: species or system horse, sheep. Conditions: for Clotting time: activated with 22 mM calcium chloride. Here is the method: Plasma was prepared by mixing sheep plasma and horse plasma at a mixing ratio of 1:9. Sheep fibrinogen solution (45.72 mg/mL in 20 mM sodium citrate-HCl, pH 7.4) was diluted to 40 mg/mL with saline. Plasma base was further prepared by mixing 77% (w/v) plasma and 23% (w/v) sheep fibrinogen solution (40 mg/mL). Whole blood control was prepared by resuspending 35% (w/v) 2% glutaraldehyde-fixed horse red blood cells in 65% (w/v) plasma base, with addition of rabbit brain cephalin to a final concentration of 0.144 mg/mL. Benzamidine of varying concentrations were added to the preparation. The whole blood control was then freeze-dried in glass vials. To test the effect of benzamidine in lyophilizate on clotting time, the freeze-dried surrogate whole blood control was reconstituted in a diluent solution to half of its original volume, incubated at room temperature for 6 minutes, and mixed by swirling the glass vial gently for an additional 1 minute. The control was then activated by addition of 22 mM calcium chloride at the volume ratio of 1:1, followed by six times of rapid inversion. The samples were tested on Perosphere Technologies' PoC Coagulometers immediately after activation.

Assay [3] deals with surrogate whole blood control. As to the kind of experiment: Clotting time of surrogate whole blood control on PoC Coagulometer, benzamidine in activation solution (Example 4). Details: species or system horse, sheep. Conditions: for Clotting time: 22 mM CaCl2. Here is the method:
Plasma was prepared by mixing sheep plasma and horse plasma at a mixing ratio of 1:9. Sheep fibrinogen solution (45.72 mg/mL in 20 mM sodium citrate-HCl, pH 7.4) was diluted to 40 mg/mL with saline. Plasma base was further prepared by mixing 77% (w/v) plasma and 23% (w/v) sheep fibrinogen solution (40 mg/mL). Whole blood control was prepared by resuspending 35% (w/v) 3% glutaraldehyde-fixed horse red blood cells in 65% (w/v) plasma base, with addition of rabbit brain cephalin to a final concentration of 0.144 mg/mL. The whole blood control was then freeze-thawed once and freeze-dried in glass vials. To test the effect of benzamidine concentration in activation solution on clotting time, the freeze-dried surrogate whole blood control was reconstituted in a diluent solution to half of its original volume, incubated at room temperature for 6 minutes, and mixed by swirling the glass vial gently for an additional 1 minute. The control was then activated by addition of an activation solution containing 22 mM CaCl2) and varying concentrations of benzamidine at the volume ratio of 1:1, followed by six times of rapid inversion. The samples were tested on Perosphere Technologies' PoC Coagulometers immediately after activation.

With `[Ca+2].[Cl-].[Cl-]` [CaCl2, calcium chloride], the Clotting time in assay [1] (CaCl2 concentration in activation solution 14 mM) was determined as 199.00 s; in assay [1] (CaCl2 concentration in activation solution 22 mM), 154.00 s; in assay [1] (CaCl2 concentration in activation solution 30 mM), 166.00 s; in assay [1] (CaCl2 concentration in activation solution 40 mM), 203.33 s.
Take `N=C(N)c1ccccc1` [Benzamidine, benzamidine]: in assay [2] (0-2.2 mM in lyophilizate, FIG. 1), the “Response of clotting time to benzamidine concentration in lyophilizate (dose-response curve)” value was “linear”. Besides, the Clotting time in assay [2] (benzamidine concentration in lyophilizate 1.1 mM) was 339.33 s; in assay [2] (benzamidine concentration in lyophilizate 2.2 mM), 495.00 s; in assay [3] (benzamidine concentration in activation solution 1.1 mM) it was 206.00 s; in assay [3] (benzamidine concentration in activation solution 2.2 mM), 249.00 s; in assay [3] (benzamidine concentration in activation solution 4.4 mM) it was 357.67 s; in assay [3] (benzamidine concentration in activation solution 6.6 mM), 422.50 s. Further, in assay [3] (0-6.6 mM in activation solution, FIG. 2), the “Response of clotting time to benzamidine concentration in activation solution” value is listed as “linear response”.
